Test results: patent publication US20130288956A1, “COMBINED PHARMACEUTICAL COMPOSITION AS ANTIFUNGAL AGENT” (priority 2010, published 2013)

Assays:
[1] = tested on: A. flavus strain IFM50915; assay: A. flavus respiratory tract infection model; assay type: in vivo, mice
Protocol: Female DBA/2N mice (age 8 weeks, Charles River Laboratories Japan, Inc.) were subcutaneously administered 200 mg/kg of 5-fluorouracil 5 or 6 days prior to infection in order to put the mice into a compromised state.
A. fumigatus strain IFM52108 and A. flavus strain IFM50915 were used.
A liquid containing spores of A. flavus strain IFM50915 stored at −80° C. was thawed, and the number of spores was counted using a hemocytometer followed by diluting with sterile physiological saline containing 0.05% Tween 80 to a concentration of 0.6×10^6 cells/mL to 1.0×10^6 cells/mL to obtain an inoculation fungus liquid.
50 μl of inoculation fungus liquid were inoculated into the nasal cavities of 9-week-old mice at 0.3×10^5 cells/mouse to 1.25×10^5 cells/mouse under Ketalar anesthesia.
0.1 mL to 0.2 mL of each drug solution (dissolved in sterile physiological saline or 5% glucose solution, or dissolved in sterile physiological saline or 5% glucose solution containing 6.5% dimethylsulfoxide and 3.5% Tween 80) was administered to the individual and combination dose groups either into the peritoneal cavity or into the stomach using a gastric cannula corresponding to the administration route of the drug for 3 to 4 days at the rate of 1 to 2 times per day starting 0.5 hours to 1 hour after inoculation of fungus.
There were 5 to 9 animals in each group.
Infection protection results were assessed on survival rate 14 days after infection.

A. flavus = assay: In vitro combination effects, checkerboard method by micro dilution (FIC index); assay type: cell-based, Aspergillus flavus; settings: A. flavus (4 strains), Table 1
Protocol: (§1) A clinically isolated strain retained by the Medical Mycology Research Center of Chiba University (Code No. IFM) and a clinically isolated strain retained by the Life Science Research Center of Gifu University (Code No. E) were used as Candida and Aspergillus strains.
(§2) An Aspergillus strain stored frozen at −80° C., or spores obtained by static culturing at 35° C. for 1 week in Potato Dextrose agar medium (PDA, Eiken Chemical Co., Ltd.) followed by scraping from the container with a metal loop, was diluted with RPMI 1640 medium containing 0.165 M MOPS to prepare a fungus liquid having a fungus concentration of 0.75×10^4 cells/mL to 1.33×10^4 cells/mL.
(§3) Test Compound 1 (0.0005 μg/mL to 1.56 μg/mL) in the horizontal rows (12 wells) of a 96-well flat-bottom plate, and an antifungal agent in the form of ravuconazole (0.0015 μg/mL to 6.25 μg/mL), fluconazole (0.008 μg/mL to 32 μg/mL), voriconazole (0.0002 μg/mL to 8 μg/mL), micafungin (0.0005 μg/mL to 0.25 μg/mL), caspofungin (0.0005 μg/mL to 1 μg/mL) or amphotericin B (0.008 μg/mL to 8 μg/mL) in the vertical rows (8 wells) of the flat-bottom plate were prepared by diluting so as to blend together using RPMI 1640 medium containing 0.165 M MOPS to obtain a control group, a single Test Compound 1 group, each one of antifungal agents groups and combination groups of Test Compound 1+each one of antifungal agents.
(§4) The fungus liquids prepared in (1) were inoculated into the wells of 96-well flat-bottom plate containing 20 μL/well to 75 μL/well of the diluted test drug liquids prepared in (2) at 80 μL/well to 125 μL/well, followed by aerobically static culturing for 25 hours to 48 hours at 35° C.
(§5) Combination effects of Test Compound 1 and the antifungal agents were measured with the checkerboard method by micro dilution.
(§6) Interaction between both drugs was assessed by calculating the FIC index using the calculation formula indicated below.
(§7) The FIC index was calculated for each combination of antifungal agent concentrations that inhibited fungal growth, and the minimum value of the resulting FIC index was used as a combination FIC index.
(§8) A combination FIC index of 0.5 or less was evaluated as indicating synergistic action, that of 0.5 to 1 or less was evaluated as indicating additive action, and that of 1 to 4 or less was evaluated as indicating indifferent action.
(§9) FIC Index=(MIC value of drug A during combination use/MIC value of drug A when used alone)+(MIC value of drug B during combination use/MIC value of drug B when used alone) (Calculation Formula)

C. glabrata = assay: as above; assay type: cell-based, Candida glabrata; settings: C. glabrata (10 strains); combination use with Test Compound 1
Protocol: as §1
(§10) Fungus liquid obtained by static culturing at 35° C. for 48 hours in Sabouraud Dextrose liquid medium (SDB, Becton, Dickinson and Co.) was diluted with RPMI 1640 medium (Nissui Pharmaceutical Co., Ltd.) containing 0.165 M 3-(N-morpholino)propanesulfonic acid (MOPS) to prepare a fungus liquid having a fungus concentration of 1×10^3 cells/mL to 2×10^3 cells/mL.
as §3, §4, §5, §6, §7, §8, §9

C. tropicalis = assay: as above; assay type: cell-based, Candida tropicalis; settings: C. tropicalis (10 strains); combination use with Test Compound 1
Protocol: as §1, §10, §3, §4, §5, §6, §7, §8, §9

A. fumigatus = assay: as above; assay type: cell-based, Aspergillus fumigatus; settings: A. fumigatus (18 strains)
Protocol: as §1, §2, §3, §4, §5, §6, §7, §8, §9

C. albicans = assay: as above; assay type: cell-based, Candida albicans; settings: C. albicans (20 strains); combination use with Test Compound 1
Protocol: as §1, §10, §3, §4, §5, §6, §7, §8, §9

With `CC[C@H](C)C[C@H](C)CCCCCCCCC(=O)N[C@H]1C[C@@H](O)[C@@H](NCCN)NC(=O)[C@@H]2[C@@H](O)CCN2C(=O)[C@H]([C@H](O)CCN)NC(=O)[C@H]([C@H](O)[C@@H](O)c2ccc(O)cc2)NC(=O)[C@@H]2C[C@@H](O)CN2C(=O)[C@H]([C@@H](C)O)NC1=O` [Caspofungin, caspofungin] the 14-day survival rate ([1]; CSFG 0.1 mg/kg, Table 5) was 37.5%, the 14-day survival rate ([1]; CSFG 0.2 mg/kg, Table 5) was 50% and the 14-day survival rate ([1]; CSFG 0.25 mg/kg, Table 4) was 20%. The 14-day survival rate ([1]; CSFG 0.5 mg/kg, Table 4) was 60%, the “Combined effects in mouse Aspergillus flavus infection model” value ([1]; combination with the test compound of the invention) was “synergistic combined effects” and the “Ratio indicating Additive effect of combination use with Test Compound 1” value (from here on “Ratio indicating Additive effect”) (A. flavus) was 25%. For the same compound, the “Ratio indicating Antagonistic effect of combination use with Test Compound 1” value (“Ratio indicating Antagonistic effect” below) (A. flavus) was 0%, the “Ratio indicating Indifferent effect of combination use with Test Compound 1” value (shortened to “Ratio indicating Indifferent effect”) (A. flavus) was 0% and the “Ratio indicating Synergistic effect of combination use with Test Compound 1” value (“Ratio indicating Synergistic effect” below) (A. flavus) was 75%. The “Ratio indicating Additive effect” value (C. glabrata) was 100%, the “Ratio indicating Antagonistic effect” value (C. glabrata) was 0% and the “Ratio indicating Indifferent effect” value (C. glabrata) was 0%. The “Ratio indicating Synergistic effect” value (C. glabrata) was 0%, the “Ratio indicating Additive effect” value (C. tropicalis) was 90% and the “Ratio indicating Antagonistic effect” value (C. tropicalis) was 0%. The “Ratio indicating Indifferent effect” value (C. tropicalis) was 10%, the “Ratio indicating Synergistic effect” value (C. tropicalis) was 0% and the “Ratio indicating Additive effect” value (A. fumigatus) was 22%. For the same compound, the “Ratio indicating Antagonistic effect” value (A. fumigatus) was 0%, the “Ratio indicating Indifferent effect” value (A. fumigatus) was 0% and the “Ratio indicating Synergistic effect” value (A. fumigatus) was 78%. For the same compound, the “Ratio indicating Additive effect” value (C. albicans) was 85%, the “Ratio indicating Antagonistic effect” value (C. albicans) was 0% and the “Ratio indicating Indifferent effect” value (C. albicans) was 15%. For the same compound, the “Ratio indicating Synergistic effect” value (C. albicans) was 0%.

For `OC(Cn1cncn1)(Cn1cncn1)c1ccc(F)cc1F` [Fluconazole, fluconazole], the “Ratio indicating Additive effect” value (C. glabrata) was 90%, the “Ratio indicating Antagonistic effect” value (C. glabrata) was 0% and the “Ratio indicating Indifferent effect” value (C. glabrata) was 10%. For the same compound, the “Ratio indicating Synergistic effect” value (C. glabrata) was 0%, the “Ratio indicating Additive effect” value (C. tropicalis) was 10% and the “Ratio indicating Antagonistic effect” value (C. tropicalis) was 0%. For the same compound, the “Ratio indicating Indifferent effect” value (C. tropicalis) was 0%, the “Ratio indicating Synergistic effect” value (C. tropicalis) was 90% and the “Ratio indicating Additive effect” value (C. albicans) was 80%. The “Ratio indicating Antagonistic effect” value (C. albicans) was 0%, the “Ratio indicating Indifferent effect” value (C. albicans) was 10% and the “Ratio indicating Synergistic effect” value (C. albicans) was 10%.

`Nc1c(-c2cc(Cc3ccc(COc4ccccn4)cc3)no2)ccc[n+]1COP(=O)([O-])O` [Test Compound 2, 2-amino-1-((phosphonooxy)methyl)-3-(3-((4-((2-pyridinyloxy)methyl)phenyl)methyl)-5-isoxazolyl)-pyridinium] gave a 14-day survival rate ([1]; Test Compound 2 2.5 mg/kg, Table 5 CSFG experiment) of 0%, a 14-day survival rate ([1]; Test Compound 2 5 mg/kg, Table 5 CSFG experiment) of 50% and a 14-day survival rate ([1]; Test Compound 2 5 mg/kg, Table 5 L-AmB experiment) of 0%. For the same compound, the 14-day survival rate ([1]; Test Compound 2 5 mg/kg, Table 5 MCFG experiment) was 22.2% and the 14-day survival rate ([1]; Test Compound 2 10 mg/kg, Table 5 MCFG experiment) was 55.6%.
